Test results published in ChEMBL document CHEMBL1156264, “Synthesis and structure-activity relationships of dimeric peptide antagonists of the human immunoglobulin G-human neonatal Fc receptor (IgG-FcRn) interaction” (J Med Chem, 2010).
Numbered stars: 1 amine (or outer) side, 2 acyl side, 3 side chain; on linkers, the order of the positions; unused ones are H or OH. Bridge positions count the residues as written; N and C are the ends. Square brackets hold non-standard residues; d marks the D form. Peptide text beside a SMILES is read from it. I, II: the chains in the order shown. X3 = CN(CCCNC(=O)CCNC(=O)CCSCC(=O)[*:1])CCCNC(=O)CCNC(=O)CCSCC(=O)[*:2]; Phe(4-guanidino) = N=C(N)Nc1ccc(C[C@H](N)C(=O)O)cc1; X1 = O=C(C(=O)[*:2])[C@H](Cc1ccc(O)cc1)N[*:1]; NMeL = CN[C@@H](CC(C)C)C(=O)O; Pen = CC(C)(S)[C@H](N)C(=O)O; Suc = O=C(CCC(=O)[*:2])[*:1]; Sar = CNCC(=O)O

Target: IgG receptor FcRn large subunit p51 (Homo sapiens, UniProt P55899)
Sequence (P55899 whole entry): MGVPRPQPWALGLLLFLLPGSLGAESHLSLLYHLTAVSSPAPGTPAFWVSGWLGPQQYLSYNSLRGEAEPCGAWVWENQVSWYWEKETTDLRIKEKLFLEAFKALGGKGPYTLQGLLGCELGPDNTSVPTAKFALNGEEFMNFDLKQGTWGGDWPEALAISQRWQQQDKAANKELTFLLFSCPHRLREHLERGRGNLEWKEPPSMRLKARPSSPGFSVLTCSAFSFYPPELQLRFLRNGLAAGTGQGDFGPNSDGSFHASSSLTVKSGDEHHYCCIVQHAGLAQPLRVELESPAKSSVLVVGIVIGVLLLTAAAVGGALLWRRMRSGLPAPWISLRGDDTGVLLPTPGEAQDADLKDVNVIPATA
Assay: Inhibition of IgG binding to soluble human FcRn after 2 hrs by competition ELISA

In order of falling IC50:
1. CC(C)C[C@@H]1NC(=O)CNC(=O)CNC(=O)[C@H](Cc2ccccc2)NC(=O)[C@H](Cc2cnc[nH]2)NC(=O)CNC(=O)[C@H]([C@@H](C)O)NC(=O)[C@@H](NC(=O)[C@H](Cc2ccccc2)NC(=O)[C@H](CCCNC(=N)N)NC(=O)CCC(=O)NCCN(C)CC(=O)N[C@@H](CCCNC(=N)N)C(=O)N[C@@H](Cc2ccccc2)C(=O)N[C@H]2CSSC[C@@H](C(N)=O)NC(=O)[C@@H]3CCCN3C(=O)C(=O)[C@H](Cc3ccc(O)cc3)NC(=O)[C@H](CC(C)C)NC(=O)CNC(=O)CNC(=O)[C@H](Cc3ccccc3)NC(=O)[C@H](Cc3cnc[nH]3)NC(=O)CNC(=O)[C@H]([C@@H](C)O)NC2=O)CSSC[C@@H](C(N)=O)NC(=O)[C@@H]2CCCN2C(=O)C(=O)[C@H](Cc2ccc(O)cc2)NC1=O  3000 nM
2. CC(C)C[C@H]1C(=O)N[C@@H](Cc2ccc(O)cc2)C(=O)C(=O)N2CCC[C@H]2C(=O)N[C@H](C(=O)N[C@@H](CC(N)=O)C(=O)NCC(=O)N2CCC[C@H]2C(N)=O)CCCCNC(=O)C[C@H](NC(=O)[C@H](Cc2ccccc2)NC(=O)CSCCC(=O)NCCC(=O)NCCCN(C)CCCNC(=O)CCNC(=O)CCSCC(=O)N[C@@H](CCC(N)=O)C(=O)N[C@@H](CCCNC(=N)N)C(=O)N[C@@H](Cc2ccccc2)C(=O)N[C@H]2CC(=O)NCCCC[C@@H](C(=O)N[C@@H](CC(N)=O)C(=O)NCC(=O)N3CCC[C@H]3C(N)=O)NC(=O)[C@@H]3CCCN3C(=O)C(=O)[C@H](Cc3ccc(O)cc3)NC(=O)[C@H](CC(C)C)N(C)C(=O)CN(C)C(=O)CNC(=O)[C@H](Cc3ccccc3)NC(=O)[C@H](Cc3cnc[nH]3)NC(=O)CNC(=O)[C@H]([C@@H](C)O)NC2=O)C(=O)N[C@@H]([C@@H](C)O)C(=O)NCC(=O)N[C@@H](Cc2cnc[nH]2)C(=O)N[C@@H](Cc2ccccc2)C(=O)NCC(=O)N(C)CC(=O)N1C (I: QRFDTGHFG[Sar][NMeL][X1]PKNGP-NH2 / II: FDTGHFG[Sar][NMeL][X1]PKNGP-NH2; lactam I:4-I:14, II:2-II:12; linker I:N-II:N via X3)  2400 nM
3. CC(C)C[C@H]1C(=O)N[C@@H](Cc2ccc(O)cc2)C(=O)C(=O)N2CCC[C@H]2C(=O)N[C@H](C(N)=O)CSSC(C)(C)[C@H](NC(=O)[C@H](Cc2ccccc2)NC(=O)[C@H](CCCNC(=N)N)NC(=O)CCC(=O)N[C@@H](CCCNC(=N)N)C(=O)N[C@@H](Cc2ccccc2)C(=O)N[C@@H]2C(=O)N[C@@H]([C@@H](C)O)C(=O)NCC(=O)N[C@@H](Cc3ccc(N=C(N)N)cc3)C(=O)NCC(=O)N(C)CC(=O)N(C)[C@@H](CC(C)C)C(=O)N[C@@H](Cc3ccc(O)cc3)C(=O)C(=O)N3CCC[C@H]3C(=O)N[C@H](C(N)=O)CSSC2(C)C)C(=O)N[C@@H]([C@@H](C)O)C(=O)NCC(=O)N[C@@H](Cc2ccc(N=C(N)N)cc2)C(=O)NCC(=O)N(C)CC(=O)N1C (I: RF[Pen]TG[Phe(4-guanidino)]G[Sar][NMeL][X1]PC-NH2 / II: RF[Pen]TG[Phe(4-guanidino)]G[Sar][NMeL][X1]PC-NH2; disulfide I:3-I:12, II:3-II:12; linker I:N-II:N via Suc)  20 nM
4. CC(C)C[C@H]1C(=O)N[C@@H](Cc2ccc(O)cc2)C(=O)C(=O)N2CCC[C@H]2C(=O)N[C@H](C(N)=O)CSSC(C)(C)[C@H](NC(=O)[C@H](Cc2ccccc2)NC(=O)[C@H](CCCNC(=N)N)NC(=O)CC(C)(C)CC(=O)N[C@@H](CCCNC(=N)N)C(=O)N[C@@H](Cc2ccccc2)C(=O)N[C@@H]2C(=O)N[C@@H]([C@@H](C)O)C(=O)NCC(=O)N[C@@H](Cc3cnc[nH]3)C(=O)N[C@@H](Cc3ccccc3)C(=O)NCC(=O)N(C)CC(=O)N(C)[C@@H](CC(C)C)C(=O)N[C@@H](Cc3ccc(O)cc3)C(=O)C(=O)N3CCC[C@H]3C(=O)N[C@H](C(N)=O)CSSC2(C)C)C(=O)N[C@@H]([C@@H](C)O)C(=O)NCC(=O)N[C@@H](Cc2cnc[nH]2)C(=O)N[C@@H](Cc2ccccc2)C(=O)NCC(=O)N(C)CC(=O)N1C  5 nM
5. CC(C)C[C@H]1C(=O)N[C@@H](Cc2ccc(O)cc2)C(=O)C(=O)N2CCC[C@H]2C(=O)N[C@H](C(N)=O)CSSC(C)(C)[C@H](NC(=O)[C@H](Cc2ccccc2)NC(=O)[C@H](CCCNC(=N)N)NC(=O)CCOCCOCCOCCOCCOCCC(=O)N[C@@H](CCCNC(=N)N)C(=O)N[C@@H](Cc2ccccc2)C(=O)N[C@@H]2C(=O)N[C@@H]([C@@H](C)O)C(=O)NCC(=O)N[C@@H](Cc3cnc[nH]3)C(=O)N[C@@H](Cc3ccccc3)C(=O)NCC(=O)N(C)CC(=O)N(C)[C@@H](CC(C)C)C(=O)N[C@@H](Cc3ccc(O)cc3)C(=O)C(=O)N3CCC[C@H]3C(=O)N[C@H](C(N)=O)CSSC2(C)C)C(=O)N[C@@H]([C@@H](C)O)C(=O)NCC(=O)N[C@@H](Cc2cnc[nH]2)C(=O)N[C@@H](Cc2ccccc2)C(=O)NCC(=O)N(C)CC(=O)N1C  4.8 nM
6. CC(C)C[C@H]1C(=O)N[C@@H](Cc2ccc(O)cc2)C(=O)C(=O)N2CCC[C@H]2C(=O)N[C@H](C(N)=O)CSSC(C)(C)[C@H](NC(=O)[C@H](Cc2ccccc2)NC(=O)[C@H](CCCNC(=N)N)NC(=O)CN(C)CC(=O)N[C@@H](CCCNC(=N)N)C(=O)N[C@@H](Cc2ccccc2)C(=O)N[C@@H]2C(=O)N[C@@H]([C@@H](C)O)C(=O)NCC(=O)N[C@@H](Cc3cnc[nH]3)C(=O)N[C@@H](Cc3ccccc3)C(=O)NCC(=O)N(C)CC(=O)N(C)[C@@H](CC(C)C)C(=O)N[C@@H](Cc3ccc(O)cc3)C(=O)C(=O)N3CCC[C@H]3C(=O)N[C@H](C(N)=O)CSSC2(C)C)C(=O)N[C@@H]([C@@H](C)O)C(=O)NCC(=O)N[C@@H](Cc2cnc[nH]2)C(=O)N[C@@H](Cc2ccccc2)C(=O)NCC(=O)N(C)CC(=O)N1C  4.7 nM
7. CC(C)C[C@H]1C(=O)N[C@@H](Cc2ccc(O)cc2)C(=O)C(=O)N2CCC[C@H]2C(=O)N[C@H](C(N)=O)CSSC(C)(C)[C@H](NC(=O)[C@H](Cc2ccccc2)NC(=O)[C@H](CCCNC(=N)N)NC(=O)CCC(=O)NCCN(C)CC(=O)N[C@@H](CCCNC(=N)N)C(=O)N[C@@H](Cc2ccccc2)C(=O)N[C@@H]2C(=O)N[C@@H]([C@@H](C)O)C(=O)NCC(=O)N[C@@H](Cc3cnc[nH]3)C(=O)N[C@@H](Cc3ccccc3)C(=O)N[C@H]3CCCN(CC(=O)N(C)[C@@H](CC(C)C)C(=O)N[C@@H](Cc4ccc(O)cc4)C(=O)C(=O)N4CCC[C@H]4C(=O)N[C@H](C(N)=O)CSSC2(C)C)C3=O)C(=O)N[C@@H]([C@@H](C)O)C(=O)NCC(=O)N[C@@H](Cc2cnc[nH]2)C(=O)N[C@@H](Cc2ccccc2)C(=O)N[C@H]2CCCN(CC(=O)N1C)C2=O  3.9 nM
8. CC(C)C[C@H]1C(=O)N[C@@H](Cc2ccc(O)cc2)C(=O)C(=O)N2CCC[C@H]2C(=O)N[C@H](C(N)=O)CSSC(C)(C)[C@H](NC(=O)[C@H](Cc2ccccc2)NC(=O)[C@H](CCCNC(=N)N)NC(=O)CCC(=O)N[C@@H](CCCNC(=N)N)C(=O)N[C@@H](Cc2ccccc2)C(=O)N[C@@H]2C(=O)N[C@@H]([C@@H](C)O)C(=O)NCC(=O)N[C@@H](Cc3cnc[nH]3)C(=O)N[C@@H](Cc3ccccc3)C(=O)NCC(=O)N(C)CC(=O)N(C)[C@@H](CC(C)C)C(=O)N[C@@H](Cc3ccc(O)cc3)C(=O)C(=O)N3CCC[C@H]3C(=O)N[C@H](C(N)=O)CSSC2(C)C)C(=O)N[C@@H]([C@@H](C)O)C(=O)NCC(=O)N[C@@H](Cc2cnc[nH]2)C(=O)N[C@@H](Cc2ccccc2)C(=O)NCC(=O)N(C)CC(=O)N1C  2.4 nM
